Measurements taken from publication PMC10892984, “Novel Antineoplastic Inducers of Mitochondrial Apoptosis in Human Cancer Cells” (Molecules, 2024).

Columns and labels:
[1] = Cytotoxicity (CellTiter 96 AQueous One, MTS); assay type: cell-based, African green monkey (grivet) Chlorocebus aethiops; conditions: African green monkey (Chlorocebus aethiops), Vero cells
Method: (§1) The cytotoxicity and human immunodeficiency virus type 1 (HIV-1) strain LAI replication assays were performed in freshly explanted primary human peripheral blood mononuclear cells (PBM cells) according to published procedures. The assays were conducted at least in triplicate and treated statistically (if possible). HIV-1LAI (= HIV-1BRU = LAV-1) was assayed in primary human peripheral blood lymphocyte (PBL) cells in the presence of a drug being evaluated. The parameter for antiviral activity was a reduction in reverse transcriptase (RT) activity in the cell supernatant after Triton X–100-mediated lysis of released virions, as measured using [5α-^3H]dTTP (5α-tritiated thymidine 5′-triphosphate) incorporation into poly(rA)•poly(dT) directed by the primed RNA template poly(rA)•oligo(dT). […] Cytotoxicity on PBL and the other cells (CCRF−CEM, Vero) exerted by the test compounds was determined as described by Stuyver et al. by application of the CellTiter 96® AQueous One Solution Cell Proliferation Assay (Promega Corp., Madison, WI, USA). Briefly, the phenazine ethosulfate (PES)-coupled reduction of the tetrazolium salt 3-(4,5-dimethylthiazol-2-yl)-5-(3-carboxymethoxyphenyl)-2-(4-sulfophenyl)-2H-tetrazolium (MTS) to a purple, water-soluble formazan by living, undamaged cells was measured.

[2] = test system: HIV-1LAI; assay: HIV-1LAI replication reverse transcriptase assay in primary PBM cells; assay type: cell-based, human immunodeficiency virus type 1
Method: (§2) The cytotoxicity and human immunodeficiency virus type 1 (HIV-1) strain LAI replication assays were performed in freshly explanted primary human peripheral blood mononuclear cells (PBM cells) according to published procedures. The assays were conducted at least in triplicate and treated statistically (if possible). HIV-1LAI (= HIV-1BRU = LAV-1) was assayed in primary human peripheral blood lymphocyte (PBL) cells in the presence of a drug being evaluated. The parameter for antiviral activity was a reduction in reverse transcriptase (RT) activity in the cell supernatant after Triton X–100-mediated lysis of released virions, as measured using [5α-^3H]dTTP (5α-tritiated thymidine 5′-triphosphate) incorporation into poly(rA)•poly(dT) directed by the primed RNA template poly(rA)•oligo(dT). […] The detailed assay methodology was reported by Schinazi et al. as based on an older assay system of Spira et al.. The experiments were conducted in triplicate and treated statistically using regression curve analysis (r^2 coefficient of determination). The RT inhibitor AZT (zidovudine, 3′-azido-3′-deoxythymidine; RETROVIR™) served as a positive control. Cytotoxicity on PBL and the other cells (CCRF−CEM, Vero) exerted by the test compounds was determined as described by Stuyver et al. by application of the CellTiter 96® AQueous One Solution Cell Proliferation Assay (Promega Corp., Madison, WI, USA). Briefly, the phenazine ethosulfate (PES)-coupled reduction of the tetrazolium salt 3-(4,5-dimethylthiazol-2-yl)-5-(3-carboxymethoxyphenyl)-2-(4-sulfophenyl)-2H-tetrazolium (MTS) to a purple, water-soluble formazan by living, undamaged cells was measured.

[3] = Cytotoxicity (CellTiter 96 AQueous One, MTS); assay type: cell-based, human; conditions: human; CCRF−CEM cells
Method: as §2

[4] = Cytotoxicity (CellTiter 96 AQueous One, MTS); assay type: cell-based; conditions: human; PBM cells
Method: as §1

Cc1cn([C@H]2C[C@H](N=[N+]=[N-])[C@@H](CO)O2)c(=O)[nH]c1=O [AZT, 3′-azido-3′-deoxythymidine, reference compound]
CC50 [1]: 56 µM
EC50 ([2]; Human immunodeficiency virus 1, PBMC, primary human PBM cells, reverse transcriptase activity in supernatant, read-out: Anti-HIV-1LAI activity EC50): 0.0044 ± 0.0018 µM
EC90 ([2]; Human immunodeficiency virus 1, PBMC, primary human PBM cells, reverse transcriptase activity in supernatant, read-out: Anti-HIV-1LAI activity EC90): 0.031 ± 0.015 µM
SI50, selectivity index CC50/EC50 ([2]; PBM cells): >22,727
CC50 [3]: 14.3 µM
CC50 [4]: > 100 µM
